Experimental data: ChEMBL document CHEMBL4765227, “Hit to lead optimization of a series of N-[4-(1,3-benzothiazol-2-yl)phenyl]acetamides as monoacylglycerol lipase inhibitors with potential anticancer activity” (Eur J Med Chem, 2016)

Experiments:
Format in all cases: functional
Settings in all cases: read-out: GI
SK-OV-3 = assay: Growth inhibition of human SK-OV-3 cells at 10 uM incubated for 48 hrs by sulforhodamine B assay relative to control
UACC-257 = assay: Growth inhibition of human UACC-257 cells at 10 uM incubated for 48 hrs by sulforhodamine B assay relative to control
TK-10 = assay: Growth inhibition of human TK-10 cells at 10 uM incubated for 48 hrs by sulforhodamine B assay relative to control
MCF7 = assay: Growth inhibition of human MCF7 cells at 10 uM incubated for 48 hrs by sulforhodamine B assay relative to control
RPMI-8226 = assay: Growth inhibition of human RPMI-8226 cells at 10 uM incubated for 48 hrs by sulforhodamine B assay relative to control
NCI-H522 = assay: Growth inhibition of human NCI-H522 cells at 10 uM incubated for 48 hrs by sulforhodamine B assay relative to control
LOX IMVI = assay: Growth inhibition of human LOX IMVI cells at 10 uM incubated for 48 hrs by sulforhodamine B assay relative to control
NCI-H322M = assay: Growth inhibition of human NCI-H322M cells at 10 uM incubated for 48 hrs by sulforhodamine B assay relative to control
SK-MEL-5 = assay: Growth inhibition of human SK-MEL-5 cells at 10 uM incubated for 48 hrs by sulforhodamine B assay relative to control
BT-549 = assay: Growth inhibition of human BT-549 cells at 10 uM incubated for 48 hrs by sulforhodamine B assay relative to control
RXF 393 = assay: Growth inhibition of human RXF 393 cells at 10 uM incubated for 48 hrs by sulforhodamine B assay relative to control
ACHN = assay: Growth inhibition of human ACHN cells at 10 uM incubated for 48 hrs by sulforhodamine B assay relative to control
HT-29 = assay: Growth inhibition of human HT-29 cells at 10 uM incubated for 48 hrs by sulforhodamine B assay relative to control
NCI-H460 = assay: Growth inhibition of human NCI-H460 cells at 10 uM incubated for 48 hrs by sulforhodamine B assay relative to control
786-0 = assay: Growth inhibition of human 786-0 cells at 10 uM incubated for 48 hrs by sulforhodamine B assay relative to control
HCT-15 = assay: Growth inhibition of human HCT-15 cells at 10 uM incubated for 48 hrs by sulforhodamine B assay relative to control
OVCAR-5 = assay: Growth inhibition of human OVCAR-5 cells at 10 uM incubated for 48 hrs by sulforhodamine B assay relative to control
MDA-MB-435 = assay: Growth inhibition of human MDA-MB-435 cells at 10 uM incubated for 48 hrs by sulforhodamine B assay relative to control
CCRF-CEM = assay: Growth inhibition of human CCRF-CEM cells at 10 uM incubated for 48 hrs by sulforhodamine B assay relative to control
UACC-62 = assay: Growth inhibition of human UACC-62 cells at 10 uM incubated for 48 hrs by sulforhodamine B assay relative to control
MDA-MB-231 = assay: Growth inhibition of human MDA-MB-231 cells at 10 uM incubated for 48 hrs by sulforhodamine B assay relative to control
OVCAR-3 = assay: Growth inhibition of human OVCAR-3 cells at 10 uM incubated for 48 hrs by sulforhodamine B assay relative to control
SF-268 = assay: Growth inhibition of human SF-268 cells at 10 uM incubated for 48 hrs by sulforhodamine B assay relative to control
A549 = assay: Growth inhibition of human A549/ATCC cells at 10 uM incubated for 48 hrs by sulforhodamine B assay relative to control
T47D = assay: Growth inhibition of human T47D cells at 10 uM incubated for 48 hrs by sulforhodamine B assay relative to control
K562 = assay: Growth inhibition of human K562 cells at 10 uM incubated for 48 hrs by sulforhodamine B assay relative to control
M14 = assay: Growth inhibition of human M14 cells at 10 uM incubated for 48 hrs by sulforhodamine B assay relative to control
SW-620 = assay: Growth inhibition of human SW-620 cells at 10 uM incubated for 48 hrs by sulforhodamine B assay relative to control
SK-MEL-28 = assay: Growth inhibition of human SK-MEL-28 cells at 10 uM incubated for 48 hrs by sulforhodamine B assay relative to control
HCT-116 = assay: Growth inhibition of human HCT-116 cells at 10 uM incubated for 48 hrs by sulforhodamine B assay relative to control
DU-145 = assay: Growth inhibition of human DU-145 cells at 10 uM incubated for 48 hrs by sulforhodamine B assay relative to control
HCC 2998 = assay: Growth inhibition of human HCC 2998 cells at 10 uM incubated for 48 hrs by sulforhodamine B assay relative to control
IGROV-1 = assay: Growth inhibition of human IGROV-1 cells at 10 uM incubated for 48 hrs by sulforhodamine B assay relative to control
NCI-H226 = assay: Growth inhibition of human NCI-H226 cells at 10 uM incubated for 48 hrs by sulforhodamine B assay relative to control
COLO 205 = assay: Growth inhibition of human COLO 205 cells at 10 uM incubated for 48 hrs by sulforhodamine B assay relative to control
SNB-75 = assay: Growth inhibition of human SNB-75 cells at 10 uM incubated for 48 hrs by sulforhodamine B assay relative to control
CAKI-1 = assay: Growth inhibition of human CAKI-1 cells at 10 uM incubated for 48 hrs by sulforhodamine B assay relative to control
KM12 = assay: Growth inhibition of human KM12 cells at 10 uM incubated for 48 hrs by sulforhodamine B assay relative to control
NCI-H23 = assay: Growth inhibition of human NCI-H23 cells at 10 uM incubated for 48 hrs by sulforhodamine B assay relative to control
Malme-3M = assay: Growth inhibition of human Malme-3M cells at 10 uM incubated for 48 hrs by sulforhodamine B assay relative to control
SNB-19 = assay: Growth inhibition of human SNB-19 cells at 10 uM incubated for 48 hrs by sulforhodamine B assay relative to control
HOP-92 = assay: Growth inhibition of human HOP-92 cells at 10 uM incubated for 48 hrs by sulforhodamine B assay relative to control
NCI/ADR-RES = assay: Growth inhibition of human NCI/ADR-RES cells at 10 uM incubated for 48 hrs by sulforhodamine B assay relative to control
OVCAR-4 = assay: Growth inhibition of human OVCAR-4 cells at 10 uM incubated for 48 hrs by sulforhodamine B assay relative to control

## O=C(CN(c1ccccc1)c1ccccc1)Nc1ccc(-c2nc3ccccc3s2)cc1
SK-OV-3
  inhibition of growth at 10 µM: -11.4%
UACC-257
  inhibition of growth at 10 µM: -8.16%
TK-10
  inhibition of growth at 10 µM: -2.02%
MCF7
  inhibition of growth at 10 µM: 52%
RPMI-8226
  inhibition of growth at 10 µM: -15.6%
NCI-H522
  inhibition of growth at 10 µM: 2.41%
LOX IMVI
  inhibition of growth at 10 µM: 6.1%
NCI-H322M
  inhibition of growth at 10 µM: -4.73%
SK-MEL-5
  inhibition of growth at 10 µM: 7.11%
BT-549
  inhibition of growth at 10 µM: -12.2%
RXF 393
  inhibition of growth at 10 µM: -5.12%
ACHN
  inhibition of growth at 10 µM: -13.4%
HT-29
  inhibition of growth at 10 µM: -5.89%
NCI-H460
  inhibition of growth at 10 µM: -0.29%
786-0
  inhibition of growth at 10 µM: -1.87%
HCT-15
  inhibition of growth at 10 µM: -8.11%
OVCAR-5
  inhibition of growth at 10 µM: -6.47%
MDA-MB-435
  inhibition of growth at 10 µM: -4.11%
CCRF-CEM
  inhibition of growth at 10 µM: -6.75%
UACC-62
  inhibition of growth at 10 µM: 2.85%
MDA-MB-231
  inhibition of growth at 10 µM: -3.01%
OVCAR-3
  inhibition of growth at 10 µM: -4.14%
SF-268
  inhibition of growth at 10 µM: -3.74%
A549
  inhibition of growth at 10 µM: -5.7%
T47D
  inhibition of growth at 10 µM: 13.6%
K562
  inhibition of growth at 10 µM: 3.89%
M14
  inhibition of growth at 10 µM: -10.1%
SW-620
  inhibition of growth at 10 µM: -3.33%
SK-MEL-28
  inhibition of growth at 10 µM: -10.5%
HCT-116
  inhibition of growth at 10 µM: -5.38%
DU-145
  inhibition of growth at 10 µM: -5.31%
HCC 2998
  inhibition of growth at 10 µM: -1.62%
IGROV-1
  inhibition of growth at 10 µM: 4.71%
NCI-H226
  inhibition of growth at 10 µM: -5.48%
COLO 205
  inhibition of growth at 10 µM: -3.6%
SNB-75
  inhibition of growth at 10 µM: 2.08%
CAKI-1
  inhibition of growth at 10 µM: 0.37%
KM12
  inhibition of growth at 10 µM: -6.94%
NCI-H23
  inhibition of growth at 10 µM: 3.7%
Malme-3M
  inhibition of growth at 10 µM: -3.98%
SNB-19
  inhibition of growth at 10 µM: -7.16%
HOP-92
  inhibition of growth at 10 µM: 11.2%
NCI/ADR-RES
  inhibition of growth at 10 µM: -9.25%
OVCAR-4
  inhibition of growth at 10 µM: -13.3%

## O=C(Cn1c2ccccc2c2ccccc21)Nc1ccc(-c2nc3ccccc3s2)cc1
SK-OV-3
  inhibition of growth at 10 µM: -7.77%
UACC-257
  inhibition of growth at 10 µM: -1.24%
TK-10
  inhibition of growth at 10 µM: -1.97%
MCF7
  inhibition of growth at 10 µM: 67.4%
RPMI-8226
  inhibition of growth at 10 µM: -18%
NCI-H522
  inhibition of growth at 10 µM: 3.42%
LOX IMVI
  inhibition of growth at 10 µM: 8.68%
NCI-H322M
  inhibition of growth at 10 µM: -5.2%
SK-MEL-5
  inhibition of growth at 10 µM: 6.47%
BT-549
  inhibition of growth at 10 µM: -5.6%
RXF 393
  inhibition of growth at 10 µM: -10.8%
ACHN
  inhibition of growth at 10 µM: -4.15%
HT-29
  inhibition of growth at 10 µM: -6.06%
NCI-H460
  inhibition of growth at 10 µM: -1.93%
786-0
  inhibition of growth at 10 µM: -1.17%
HCT-15
  inhibition of growth at 10 µM: -0.3%
OVCAR-5
  inhibition of growth at 10 µM: 0.62%
MDA-MB-435
  inhibition of growth at 10 µM: -1.43%
CCRF-CEM
  inhibition of growth at 10 µM: -5.65%
UACC-62
  inhibition of growth at 10 µM: 4.66%
MDA-MB-231
  inhibition of growth at 10 µM: 4.37%
OVCAR-3
  inhibition of growth at 10 µM: -4.48%
SF-268
  inhibition of growth at 10 µM: 6.55%
A549
  inhibition of growth at 10 µM: 0.89%
T47D
  inhibition of growth at 10 µM: 15.5%
K562
  inhibition of growth at 10 µM: 4.71%
M14
  inhibition of growth at 10 µM: -14%
SW-620
  inhibition of growth at 10 µM: -2.44%
SK-MEL-28
  inhibition of growth at 10 µM: -7.99%
HCT-116
  inhibition of growth at 10 µM: -7.02%
DU-145
  inhibition of growth at 10 µM: -2.93%
HCC 2998
  inhibition of growth at 10 µM: 0.28%
IGROV-1
  inhibition of growth at 10 µM: 13.4%
NCI-H226
  inhibition of growth at 10 µM: 1.21%
COLO 205
  inhibition of growth at 10 µM: -8.95%
SNB-75
  inhibition of growth at 10 µM: 3.22%
CAKI-1
  inhibition of growth at 10 µM: 1.03%
KM12
  inhibition of growth at 10 µM: 0.15%
NCI-H23
  inhibition of growth at 10 µM: 6.54%
Malme-3M
  inhibition of growth at 10 µM: 6.83%
SNB-19
  inhibition of growth at 10 µM: -4.51%
HOP-92
  inhibition of growth at 10 µM: -7.01%
NCI/ADR-RES
  inhibition of growth at 10 µM: -1.93%
OVCAR-4
  inhibition of growth at 10 µM: -2.83%
